Laboratory results published in patent US10793526B2, “Hydantoin derivative compounds, methods of use and methods of treatment” (University of South Florida, priority 2016, dated 2020).

Tests used:
E. coli (ATCC 25922) = assay: Minimum inhibitory concentration (MIC) assay, E. coli; assay type: cell-based, Escherichia coli; settings: 16 h incubation; for MIC: Escherichia coli, ATCC25922, Gram negative, read-out: MIC (μg/mL) E. coli; for MIC (μg/mL) E. coli: Gram negative
Description: (§1) Minimum inhibitory concentrations (MICs) assay.^2
(§2) All compounds were tested against six different bacteria strains: methicillin-resistant S. aureus (MRSA, ATCC 33591), E. coli (ATCC 25922), methicillin-resistant S. epidermidis (MRSE, RP62A), K. pneumoniae (ATCC 13383), vancomycin-resistant Enterococcus faecalis (VREF, ATCC 700802), P. aeruginosa (ATCC 27853). One colony of each bacteria was inoculated in 4 mL TSB buffer at 37° C. overnight, which was then diluted 100 times, and the bacteria were allowed to grow to the mid-logarithmic phase. 50 μL hydantoin compounds in 2-fold serial dilution of TSB were added in the 96-well plate, then 50 μL diluted bacterial in TSB medium (1×10^6 CFU/mL) was added to each well. After 16 h of incubation at 37° C., the absorption at 600 nm wavelength on a Biotek Synergy HT microtiter plate reader was recorded. Minimum inhibitory concentrations were determined as the lowest concentrations that inhibited bacteria growth completely.

[1] = test system: methicillin-resistant S. aureus (MRSA, ATCC 33591); assay: Minimum inhibitory concentration (MIC) assay, MRSA; assay type: cell-based, Staphylococcus aureus; settings: Gram positive, ATCC 33591, 16 h incubation; for MIC: Staphylococcus aureus, read-out: MIC (μg/mL) MRSA
Description: as §1, §2

[2] = test system: K. pneumoniae (ATCC 13383); assay: Minimum inhibitory concentration (MIC) assay, K. pneumoniae; assay type: cell-based, Klebsiella pneumoniae; settings: 16 h incubation; for MIC: Klebsiella pneumoniae, ATCC13383, Gram negative, read-out: MIC (μg/mL) K.P.; for MIC (μg/mL) K.P.: Gram negative
Description: as §1, §2

[3] = test system: P. aeruginosa (ATCC 27853); assay: Minimum inhibitory concentration (MIC) assay, P. aeruginosa; assay type: cell-based, Pseudomonas aeruginosa; settings: Gram negative, ATCC 27853, 16 h incubation; for MIC: Pseudomonas aeruginosa, ATCC27853, read-out: MIC (μg/mL) P.A.
Description: as §1, §2

[4] = test system: vancomycin-resistant Enterococcus faecalis (VREF, ATCC 700802); assay: Minimum inhibitory concentration (MIC) assay, VREF; assay type: cell-based; settings: 16 h incubation; for MIC: Enterococcus faecalis, ATCC700802, Gram positive, read-out: MIC (μg/mL) VREF; for MIC (μg/mL) VREF: Gram positive
Description: as §1, §2

[5] = test system: methicillin-resistant S. epidermidis (MRSE, RP62A); assay: Minimum inhibitory concentration (MIC) assay, MRSE; assay type: cell-based, Staphylococcus epidermidis; settings: Gram positive, 16 h incubation; for MIC: Staphylococcus epidermidis, MRSE, read-out: MIC (μg/mL) MRSE
Description: as §1, §2

Row | SMILES | MIC (E. coli (ATCC 25922)) [µg/mL] | MIC [1] [µg/mL] | MIC [2] [µg/mL] | MIC [3] [µg/mL] | MIC [4] [µg/mL] | MIC [5] [µg/mL] | MIC (μg/mL) E. coli (E. coli (ATCC 25922)) [µg/mL] | MIC (μg/mL) MRSA [1] [µg/mL] | MIC (μg/mL) K.P. [2] [µg/mL] | MIC (μg/mL) P.A. [3] [µg/mL] | MIC (μg/mL) VREF [4] [µg/mL] | MIC (μg/mL) MRSE [5] [µg/mL]
1 | CCCCCCCCCCCCCCCC(=O)N[C@@H](CCCCN)CN1CC(=O)N(CCCC)C1=O [Compound 8, (S)—N-(6-amino-1-(3-butyl-2,4-dioxoimidazolidin-1-yl)hexan-2-yl)palmitamide] | > 50 | 6.25 | > 50 | > 50 | 6.25 | 6.25 |  |  |  |  |  | 
2 | CCCCCCCCCCCC(=O)N[C@@H](CCCCN)CN1CC(=O)N(C23CC4CC(CC(C4)C2)C3)C1=O [Compound 14, N—((S)-1-(3-((3R,5R,7R)-adamantan-1-yl)-2,4-dioxoimidazolidin-1-yl)-6-aminohexan-2-yl) dodecanamide] |  |  |  |  |  |  | 12.5 | 6.25 | >50 | >50 | 6.25 | 6.25
3 | CCCCCCCCCCCCCCCC(=O)N[C@@H](CCCCN)CN1CC(=O)N(C23CC4CC(CC(C4)C2)C3)C1=O [Compound 16, N—((S)-1-(3-((3R,5R,7R)-adamantan-1-yl)-2,4-dioxoimidazolidin-1-yl)-6-aminohexan-2-yl) palmitamide] |  |  |  |  |  |  | >50 | >50 | >50 | >50 | >50 | >50
4 | CCCCCCCCCCCCCC(=O)N[C@@H](CCCCN)CN1CC(=O)N(c2ccc(OC)cc2)C1=O [Compound 19, (S)—N-(6-amino-1-(3-(4-methoxyphenyl)-2,4-dioxoimidazolidin-1-yl)hexan-2-yl)tetradecanamide] | 6.25 | 6.25 | 25 | > 50 | 6.25 | 6.25 |  |  |  |  |  | 
5 | CCCCCCCCCCCCCCCC(=O)N[C@@H](CCCCN)CN1CC(=O)N(c2ccc(OC)cc2)C1=O [Compound 20, (S)—N-(6-amino-1-(3-(4-methoxyphenyl)-2,4-dioxoimidazolidin-1-yl)hexan-2-yl)palmitamide] | > 50 | 3.12 | > 50 | > 50 | 6.25 | 6.25 |  |  |  |  |  | 

Second part, the molecule after the results:

Row | MIC (E. coli (ATCC 25922)) [µg/mL] | MIC [1] [µg/mL] | MIC [2] [µg/mL] | MIC [3] [µg/mL] | MIC [4] [µg/mL] | MIC [5] [µg/mL] | MIC (μg/mL) E. coli (E. coli (ATCC 25922)) [µg/mL] | MIC (μg/mL) MRSA [1] [µg/mL] | MIC (μg/mL) K.P. [2] [µg/mL] | MIC (μg/mL) P.A. [3] [µg/mL] | MIC (μg/mL) VREF [4] [µg/mL] | MIC (μg/mL) MRSE [5] [µg/mL] | SMILES
6 | 6.25 | 6.25 | 12.5 | > 50 | 6.25 | 6.25 |  |  |  |  |  |  | CCCCCCCCCCCCCC(=O)N[C@@H](CCCCN)CN1CC(=O)N(CCCC)C1=O [Compound 7, (S)—N-(6-amino-1-(3-butyl-2,4-dioxoimidazolidin-1-yl)hexan-2-yl)tetradecanamide]
7 | 12.5 | 3.12 | 6.25 | > 50 | 6.25 | 6.25 |  |  |  |  |  |  | CCCCCCCCCCCCCC(=O)N[C@@H](CCCCN)CN1CC(=O)N(C2CCCCC2)C1=O [Compound 11, (S)—N-(6-amino-1-(3-cyclohexyl-2,4-dioxoimidazolidin-1-yl)hexan-2-yl)tetradecanamide]
8 | > 50 | 3.12 | > 50 | > 50 | 25 | 25 |  |  |  |  |  |  | CCCCCCCCCCCCCCCC(=O)N[C@@H](CCCCN)CN1CC(=O)N(C2CCCCC2)C1=O [Compound 12, (S)—N-(6-amino-1-(3-cyclohexyl-2,4-dioxoimidazolidin-1-yl)hexan-2-yl)palmitamide]
9 |  |  |  |  |  |  | >50 | 3.12 | >50 | >50 | 6.25 | 3.15 | CCCCCCCCCCCCCC(=O)N[C@@H](CCCCN)CN1CC(=O)N(C23CC4CC(CC(C4)C2)C3)C1=O [Compound 15, N—((S)-1-(3-((3R,5R,7R)-adamantan-1-yl)-2,4-dioxoimidazolidin-1-yl)-6-aminohexan-2-yl) tetradecanamide]
